Patent publication US7250267B2, “Cross-reactive sensors” (priority 2001, dated 2007)

Columns and labels:
Assay type in all cases: biochemical
[1] = target: T1, Acetylcholine Esterase from Electrophorus electricus (Electrophorus electricus, UniProt O42275); test: Esterase hydrolysis microtiter plate assay with fluorescein pH indicator, acetylcholine esterase; details: for hydrolysis reaction slope after three months / initial slope range and standard deviation of hydrolysis reaction: with acetylcholine esterase; for initial slope range and standard deviation of hydrolysis reaction: measured initially
T1 construct: purchased Sigma and Fluka
Description: (§1) A fluorescent pH indicator, fluorescein, was added to the reaction mixture to measure the change in acidity resulting from the hydrolysis reaction in a 96-well microtiter plate format. The fluorescence response was monitored over time to give a temporal pH-induced fluorescence pattern. […] Esterases have been used to test ester chirality (Janes et al., Chem. Eur. J, 1998, 4, 2324) and as synthetic tools for efficiently hydrolyzing a variety of esters (Ohno et al., Org. React, 1989, 37, 1). General Procedure for Enzyme-Based Sensor Array:
(§2) First, solutions of desired substrates (certain exemplary substrates are depicted in FIGS. 4 and 5) were made from 100 mM of substrate in CH3CN (or buffer, depending on the solubility of the ester). The analyte concentration was chosen to be at most one-fifth of the Michaelis constant (kM) for the esterases. All solvents and substrates were purchased from Aldrich, Sigma, and Fluka Chemical Companies and used as received.
(§3) The microtiter plate assay provides a rapid and reproducible system to measure the hydrolysis reactions. In the present example, the microtiter plate assay contained the nine esterases in different columns and the ester analytes in the different rows. Each esterase catalyzed hydrolysis reaction was addressed individually to monitor the kinetics by scanning each well independently. After preparation of the desired solutions, to the microtiter plate was first pipetted (using a pipetman) 100 μL of the substrate solution into each well. […] The plate was allowed to shake for 10 seconds before the first reading. The reader reads 15 second intervals while shaking before each read. The plate was monitored for 90 seconds by a Molecular Devices, Spectra Max Gemini, fluorescence microtiter plate reader. The reader scans each row and column of the microtiter plate reading each well individually. Therefore, each enzyme was monitored individually and the enzyme's kinetics were measured at the same point in time. […] The MATLAB program analyzes the individual interactions and separates them into clusters, which can indicate the ability of the sensor to distinguish the analytes.

[2] = system: Esterase from Bacillus thermoglucosidasius (denoted bacteria-2); test: Esterase hydrolysis microtiter plate assay with fluorescein pH indicator, bacteria 2 esterase
Description: as §1
(§4) First, solutions of desired substrates (certain exemplary substrates are depicted in FIGS. 4 and 5) were made from 100 mM of substrate in CH3CN (or buffer, depending on the solubility of the ester). […]
(§5) The microtiter plate assay provides a rapid and reproducible system to measure the hydrolysis reactions. […] The plate was allowed to shake for 10 seconds before the first reading. The reader reads 15 second intervals while shaking before each read. The plate was monitored for 90 seconds by a Molecular Devices, Spectra Max Gemini, fluorescence microtiter plate reader. The reader scans each row and column of the microtiter plate reading each well individually. Therefore, each enzyme was monitored individually and the enzyme's kinetics were measured at the same point in time. […]

[3] = system: Esterase from Bacillus sp. (denoted bacteria-1); test: Esterase hydrolysis microtiter plate assay with fluorescein pH indicator, bacteria esterase 1; details: for Km / Vmax: Lineweaver-Burk plot, various ester concentrations, bacteria esterase 1
Description: as §1, §2
as §3, with “In” for “The microtiter plate assay provides a rapid and reproducible system to measure the hydrolysis reactions. In”
For mixture analysis, concentration runs of four esters, PA, ethyl valerate (EV), methyl nicotinate (MNI) and methyl 6-methyl nicotinate (MMNI) were performed with the nine esterases. The rates of the esterase reaction were plotted on a Lineweaver-Burk plot to determine the Km and Vmax and were used to identify subsequent mixtures of the four esters.

nine esterases = test: Esterase hydrolysis microtiter plate assay, nine-esterase array
Description: as §1, §4, §5

T1 sequence (O42275 24-633): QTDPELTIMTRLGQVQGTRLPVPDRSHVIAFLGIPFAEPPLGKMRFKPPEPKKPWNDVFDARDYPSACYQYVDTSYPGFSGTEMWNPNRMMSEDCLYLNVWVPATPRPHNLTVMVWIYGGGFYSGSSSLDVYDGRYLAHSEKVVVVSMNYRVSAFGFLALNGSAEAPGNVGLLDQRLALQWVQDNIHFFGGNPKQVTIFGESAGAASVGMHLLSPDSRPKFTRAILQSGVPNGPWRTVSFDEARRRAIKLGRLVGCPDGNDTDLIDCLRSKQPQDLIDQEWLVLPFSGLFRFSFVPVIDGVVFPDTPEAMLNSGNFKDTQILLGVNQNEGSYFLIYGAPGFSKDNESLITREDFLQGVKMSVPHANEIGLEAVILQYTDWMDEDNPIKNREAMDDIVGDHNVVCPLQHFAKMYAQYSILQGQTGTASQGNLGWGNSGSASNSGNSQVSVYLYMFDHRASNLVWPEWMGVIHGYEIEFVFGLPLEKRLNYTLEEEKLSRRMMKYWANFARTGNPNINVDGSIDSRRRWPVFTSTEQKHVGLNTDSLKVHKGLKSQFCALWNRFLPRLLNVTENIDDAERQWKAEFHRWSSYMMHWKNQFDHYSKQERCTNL

CCCC(=O)OCC [BA, Ethyl butyrate]
hydrolysis reaction slope after three months [1]: −3.2×10^2 fluorescence units/time | initial slope range and standard deviation of hydrolysis reaction [1]: (−2.9±1.6)×10^3 fluorescence units/time

COC(=O)[C@@H](C)N [DM, D-alanine methyl ester]
hydrolysis by acetylcholine esterase [1]: hydrolyzed | hydrolysis by bacteria 2 esterase [2]: not DM | hydrolysis by bacteria 1 esterase [3]: hydrolyzed

COC(=O)[C@H](C)N [LM, L-alanine methyl ester]
hydrolysis by acetylcholine esterase [1]: hydrolyzed | hydrolysis by bacteria 2 esterase [2]: hydrolyzes only LM | hydrolysis by bacteria 1 esterase [3]: hydrolyzed

CCCC(=O)OC [MB, methyl butyrate]
hydrolysis reaction slope after three months [1]: −1.3×10^2 fluorescence units/time | initial slope range and standard deviation of hydrolysis reaction [1]: (−1.3±0.01)×10^2 fluorescence units/time

CC(=O)Oc1ccccc1 [PA, Phenyl acetate]
hydrolysis reaction slope after three months [1]: −1.5×10^3 fluorescence units/time | initial slope range and standard deviation of hydrolysis reaction [1]: (−1.4±0.2)×10^2 fluorescence units/time | relative rate of hydrolysis among all of the esters (nine esterases): hydrolyzed the fastest

CCCCC(=O)OCC [ethyl valerate, Ethyl valerate]
Km [3]: 1000 µM | Vmax [3]: 2e-07 M/s

COC(=O)c1ccc(C)nc1 [methyl 6-methyl nicotinate, Methyl 6-methyl nicotinate]
Km [3]: 2600 µM | Vmax [3]: 4e-07 M/s
